Measured values as given in PubChem BioAssay (NCI).
Several values for one entry are separate records, joined by “and”; a condition that tells them apart may be missing. Equal entries are not always repeated.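 Cells were grown in 96-well plates and exposed to each compound for 48 hours at five concentrations; endpoints were interpolated linearly between bracketing concentrations, or set to the highest concentration if not reached. The concentration for 50% growth inhibition is given as GI50. TGI is the concentration that stops growth completely.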

What follows are compounds tested on NCI-H460 lung (assay: growth of human tumour cells (NCI), 48 h).

Row | SMILES | TGI | GI50
1 | COC(=O)/C(=C\c1ccc(N(CCC#N)CCC#N)cc1)NC(=O)c1cc([N+](=O)[O-])ccc1Cl | > 100 µM | –
2 | COC1=C(Br)C(=O)c2nc(C)ccc2C1=O | 31.7 µM | –
3 | COc1ccc2c3c(Nc4ccc(/C(C)=N/O)cc4)[nH]c4ccccc4c-3c(N=O)c2c1 | > 100 µM | 29.5 µM
4 | C/C(CCn1[nH]c(=O)ccc1=O)=N\OCCCc1ccccc1 | > 100 µM | –
5 | COC(=O)c1cccc2cccc(C(=O)Nc3ccc(Cl)cc3)c12 | > 100 µM | –
6 | N.N.NCCCCCCCCCN.O=C([O-])CC(=O)[O-].O=C([O-])CC(=O)[O-].[Pt+4].[Pt+4] | > 100 µM | 25.8 µM
7 | CC(=O)OC1C2CCC1C1C2C2(Cl)C(Cl)=C(Cl)C1(Cl)C2(Cl)Cl (stereo unspecified) | 27.4 µM | –
8 | CC(C(=O)n1c2ccccc2c2ccccc21)N(c1ccccc1)c1ccccc1 (stereo unspecified) | > 100 µM | –
9 | CCOC(=O)Cn1c(=O)n(C)c(=O)c2c1ncn2Cc1ccccc1 | > 100 µM | –
10 | CCCCc1c2c(nc3c1CCC/C3=C\c1ccccc1)/C(=C/c1ccccc1)CCC2 | > 100 µM | –
11 | CC(C)(C)OC(=O)N1N=NC2C1C1CC(OCc3ccccc3)(OCc3ccccc3)C2O1 (stereo unspecified) | > 100 µM | –
12 | O=C1CSC(c2ccc(-c3nc4ccccc4s3)cc2)=N1 | 74.5 µM | 30.2 µM
13 | O=C1C(=O)N(c2cc(Cl)ccc2Cl)C(=O)C(=O)C1c1nc2ccccc2o1 | > 100 µM | –
14 | CC1=C(C(=O)Nc2ccccc2)C(c2ccc(C3C(C(=O)Nc4ccccc4)=C(C)NC(C)=C3C(=O)Nc3ccccc3)cc2)C(C(=O)Nc2ccccc2)=C(C)N1 | 8.29 µM | –
15 | CCC(=O)Nc1ccc(N=NN(C)C)cc1 | > 100 µM | –
16 | O=c1c2ccccc2nc(-c2ccccc2)n1NC(=S)Nc1ccccc1 | > 100 µM | –
17 | C[C@]12CC[C@@H]3c4ccc(O)c([N+](=O)[O-])c4CC[C@H]3[C@@H]1CC[C@@H]2NS(=O)(=O)c1cccc(Br)c1 | 3.56 µM | 1.81 µM
18 | CCOC(=O)/C(=C/c1cccc(C#N)c1)N(CC)CC | > 100 µM | –
19 | N#Cc1ccc(OC(=O)Nc2ccc(Cl)c(Cl)c2)cc1 | 9.34 µM | 2.87 µM
20 | C=CCN1CC2CON(C(=O)C(OC)(c3ccccc3)C(F)(F)F)C2C1C(C)C (stereo unspecified) | – | 28.9 µg/mL
21 | COc1cc(C2C(C(=O)Nc3cc(F)c(F)cc3F)=C(C)NC(C)=C2C(=O)Nc2cc(F)c(F)cc2F)ccc1O | > 100 µM | –
22 | O=c1nc(-c2ccccc2)cc(-c2ccccc2O)[nH]1 | > 100 µM | –
23 | Oc1ccc(Br)cc1C=Nc1ccc(N=Cc2cc(Br)ccc2O)cc1 | > 100 µM | –
24 | CCOc1ccccc1NC(=O)C(=O)Cc1nc2ccccc2s1 | > 100 µM | –
25 | C=CCn1c2c(sc1=S)C(S)N=CN2 (stereo unspecified) | > 100 µM | –
26 | Cc1cccc(N=C2NC(=O)C(CC(=O)Nc3cccc(C)c3C)S2)c1 (stereo unspecified) | > 100 µM | –
27 | CN(C)CCSc1nccc(-c2cc3ccccc3s2)n1 | 28 µM | –
28 | O=C(O)CSc1n[nH]c(Cc2ccccc2)n1 | > 100 µM | –
29 | O=C1C(Cl)=C(Nc2ccccc2O)C(=O)N1Cc1ccccc1 | 42.5 µM | 21 µM
30 | CCOc1ccccc1NC(=O)C(C#N)C1=C(Cl)C(=O)c2ccccc2C1=O (stereo unspecified) | 3.27 µM and 15.1 µM | 3.45 µM

These compounds were tested on NCI-H522 lung (assay: growth of human tumour cells (NCI), 48 h).

Row | SMILES | TGI | GI50
31 | OCC(O)CNc1ccnc2cc(Cl)ccc12 (stereo unspecified) | > 100 µM | –
32 | Cc1cccc(C(C)C)c1NC(=O)C(=O)C(C(=O)c1ccccc1F)C1OC(=O)c2ccccc21 (stereo unspecified) | 33.6 µM | –
33 | Cc1cccc(C)c1NC(=O)C(=O)CC(=O)c1cccc([N+](=O)[O-])c1 | > 100 µM | –
34 | S=C1SC2=Nc3ccccc3CN2C2=NCCN12 | > 100 µM | 27.7 µM
35 | CC1=C(c2cc(C(=O)Nc3ccc(Cl)cc3)nc(=S)[nH]2)Sc2ccccc2N1 | > 100 µM | –
36 | O=C(O)CN(c1ccccc1)S(=O)(=O)c1ccc([N+](=O)[O-])cc1 | > 100 µM | –
37 | CC1=C(C(=O)NNS(=O)(=O)c2ccc(C)cc2)CC(C(=O)NNS(=O)(=O)c2ccc(C)cc2)=C(C)N1 | > 100 µM | –
38 | Clc1cc(Cl)cc(Nc2ccc3cc(OCCCN4CCOCC4)ccc3n2)c1 | 5.22 µM | 2.08 µM
39 | N#CC(C(=O)CCC(=O)Nc1cccc(C(F)(F)F)c1)c1ccc(Cl)cc1 (stereo unspecified) | > 100 µM | –
40 | Cc1cc(C(C)(C)C)cc(Cc2cc(C(C)(C)C)cc(Cc3cc(C(C)(C)C)cc(C)c3O)c2O)c1O | 13.2 µM | –
41 | COC(=O)/C(=C\c1ccc(N(CCC#N)CCC#N)cc1)NC(=O)c1cc([N+](=O)[O-])ccc1Cl | > 100 µM | –
42 | COC1=C(Br)C(=O)c2nc(C)ccc2C1=O | 15.8 µM | –
43 | COc1ccc2c3c(Nc4ccc(/C(C)=N/O)cc4)[nH]c4ccccc4c-3c(N=O)c2c1 | 41.9 µM | 18.9 µM
44 | COC(=O)c1cccc2cccc(C(=O)Nc3ccc(Cl)cc3)c12 | > 91 µM | –
45 | N.N.NCCCCCCCCCN.O=C([O-])CC(=O)[O-].O=C([O-])CC(=O)[O-].[Pt+4].[Pt+4] | > 100 µM | 67.5 µM
46 | CC(=O)OC1C2CCC1C1C2C2(Cl)C(Cl)=C(Cl)C1(Cl)C2(Cl)Cl (stereo unspecified) | 25 µM | –
47 | CC(C(=O)n1c2ccccc2c2ccccc21)N(c1ccccc1)c1ccccc1 (stereo unspecified) | 6.48 µM | –
48 | CCOC(=O)Cn1c(=O)n(C)c(=O)c2c1ncn2Cc1ccccc1 | > 100 µM | –

Row | SMILES | TGI | GI50
49 | CCCCc1c2c(nc3c1CCC/C3=C\c1ccccc1)/C(=C/c1ccccc1)CCC2 | > 100 µM | –
50 | O=C1CSC(c2ccc(-c3nc4ccccc4s3)cc2)=N1 | 96.2 µM | 32.9 µM
51 | O=C1C(=O)N(c2cc(Cl)ccc2Cl)C(=O)C(=O)C1c1nc2ccccc2o1 | > 100 µM | –
52 | CC1=C(C(=O)Nc2ccccc2)C(c2ccc(C3C(C(=O)Nc4ccccc4)=C(C)NC(C)=C3C(=O)Nc3ccccc3)cc2)C(C(=O)Nc2ccccc2)=C(C)N1 | 3.14 µM | –
53 | CCC(=O)Nc1ccc(N=NN(C)C)cc1 | > 100 µM | –
54 | O=c1c2ccccc2nc(-c2ccccc2)n1NC(=S)Nc1ccccc1 | > 100 µM | –
55 | CCOC(=O)/C(=C/c1cccc(C#N)c1)N(CC)CC | > 100 µM | –
56 | C=CCN1CC2CON(C(=O)C(OC)(c3ccccc3)C(F)(F)F)C2C1C(C)C (stereo unspecified) | 78.8 µg/mL | 27.5 µg/mL
57 | O=S1(=O)OCCOS(=O)(=O)C1Cl | > 100 µM | –
58 | COc1cc(C2C(C(=O)Nc3cc(F)c(F)cc3F)=C(C)NC(C)=C2C(=O)Nc2cc(F)c(F)cc2F)ccc1O | 36.3 µM | –
59 | O=c1nc(-c2ccccc2)cc(-c2ccccc2O)[nH]1 | > 100 µM | –
60 | CCOc1ccccc1NC(=O)C(=O)Cc1nc2ccccc2s1 | > 100 µM | –
61 | C=CCn1c2c(sc1=S)C(S)N=CN2 (stereo unspecified) | > 100 µM | –
62 | CN(C)CCSc1nccc(-c2cc3ccccc3s2)n1 | 36.7 µM | –
63 | O=C(O)CSc1n[nH]c(Cc2ccccc2)n1 | > 100 µM | –
64 | O=C1C(Cl)=C(Nc2ccccc2O)C(=O)N1Cc1ccccc1 | 97.2 µM | 29.1 µM
65 | CCOc1ccccc1NC(=O)C(C#N)C1=C(Cl)C(=O)c2ccccc2C1=O (stereo unspecified) | 4.22 µM | –

The compounds below were run on SK-MEL-2 melanoma (assay: growth of human tumour cells (NCI), 48 h).

Row | SMILES | TGI | GI50
66 | OCC(O)CNc1ccnc2cc(Cl)ccc12 (stereo unspecified) | > 100 µM | –
67 | Cc1cccc(C(C)C)c1NC(=O)C(=O)C(C(=O)c1ccccc1F)C1OC(=O)c2ccccc21 (stereo unspecified) | 30.1 µM | –
68 | Cc1cccc(C)c1NC(=O)C(=O)CC(=O)c1cccc([N+](=O)[O-])c1 | > 100 µM | –
69 | CC1=C(c2cc(C(=O)Nc3ccc(Cl)cc3)nc(=S)[nH]2)Sc2ccccc2N1 | > 100 µM | –
70 | O=C(O)CN(c1ccccc1)S(=O)(=O)c1ccc([N+](=O)[O-])cc1 | > 100 µM | –
71 | CC1=C(C(=O)NNS(=O)(=O)c2ccc(C)cc2)CC(C(=O)NNS(=O)(=O)c2ccc(C)cc2)=C(C)N1 | > 100 µM | –
72 | Clc1cc(Cl)cc(Nc2ccc3cc(OCCCN4CCOCC4)ccc3n2)c1 | 6.97 µM | 2.7 µM
73 | [F][Sn]([F])([c]1ccccc1)[c]1ccccc1 | 3.43 µM | 1.91 µM
74 | Cc1cc(C(C)(C)C)cc(Cc2cc(C(C)(C)C)cc(Cc3cc(C(C)(C)C)cc(C)c3O)c2O)c1O | 22.3 µM | –
75 | COC(=O)/C(=C\c1ccc(N(CCC#N)CCC#N)cc1)NC(=O)c1cc([N+](=O)[O-])ccc1Cl | > 100 µM | –
76 | COC1=C(Br)C(=O)c2nc(C)ccc2C1=O | 30.1 µM | –
77 | COc1ccc2c3c(Nc4ccc(/C(C)=N/O)cc4)[nH]c4ccccc4c-3c(N=O)c2c1 | 40.6 µM | 18.4 µM
78 | C/C(CCn1[nH]c(=O)ccc1=O)=N\OCCCc1ccccc1 | > 100 µM | –
79 | COC(=O)c1cccc2cccc(C(=O)Nc3ccc(Cl)cc3)c12 | > 100 µM | –
80 | N.N.NCCCCCCCCCN.O=C([O-])CC(=O)[O-].O=C([O-])CC(=O)[O-].[Pt+4].[Pt+4] | > 100 µM | > 100 µM
81 | CC(=O)OC1C2CCC1C1C2C2(Cl)C(Cl)=C(Cl)C1(Cl)C2(Cl)Cl (stereo unspecified) | 22.2 µM | –
82 | CC(C(=O)n1c2ccccc2c2ccccc21)N(c1ccccc1)c1ccccc1 (stereo unspecified) | 28.4 µM | –
83 | CCOC(=O)Cn1c(=O)n(C)c(=O)c2c1ncn2Cc1ccccc1 | > 100 µM | –
84 | CC(C)(C)OC(=O)N1N=NC2C1C1CC(OCc3ccccc3)(OCc3ccccc3)C2O1 (stereo unspecified) | > 100 µM | –
85 | O=C1CSC(c2ccc(-c3nc4ccccc4s3)cc2)=N1 | > 100 µM | 40.9 µM
86 | O=C1C(=O)N(c2cc(Cl)ccc2Cl)C(=O)C(=O)C1c1nc2ccccc2o1 | > 100 µM | –
87 | CC1=C(C(=O)Nc2ccccc2)C(c2ccc(C3C(C(=O)Nc4ccccc4)=C(C)NC(C)=C3C(=O)Nc3ccccc3)cc2)C(C(=O)Nc2ccccc2)=C(C)N1 | 5.06 µM | –
